# Laboratory results taken from patent publication US4080471A, “Use of substituted isopropylaminopropanols for inducing inotropic effects of the human heart” (priority 1976, dated 1978).
# Entries after “also recorded” stand apart in the source; their conditions may differ.
# Experiments:
# cardiac beta-receptors = assay: Chronotropic (heart frequency) and inotropic (maximum dP/dt) effects in reserpinized, anesthetized, vagotomized cat; type: in vivo
# Description: Chronotropic (Heart Frequency) and Inotropic (Contractile Force) Effects
# The mean blood pressure was regulated with an adjustable clamp around the descending aorta. All registrations were than able to be done at a constant pressure in aorta (afterload). The compounds were administered by infusion intravenously in increasing doses. The dose-response curves as regards the heart frequency and maximum dP/dt were constructed, from which the ED50 -values were estimated.
# Maximum dP/dt is a measure of the contractile force of the heart, i.e. inotropy, but is influenced by changes in the heart frequency, filling pressure (preload) and aortic blood pressure (afterload). In this test, a comparison between inotropic and chronotropic effects can be done at the same heart frequency. Further, the aortic blood pressure is kept constant.
# heart [1] = assay: Effect on heart contractility (maximum dP/dt) of the anesthetized dog; type: in vivo
# From the text: (§1) Effects of Compound I and Ouabain On the Heart Contractility and Rhythmicity of the Anesthetized Dog
# (§2) The object of the test was to compare compound I and oubain administered alone and in combination with each other to study the inotropic effect (maximum dP/dt in the left ventricle) and a possibly arrhythmic effect. The latter included an investigation of the ability of the compounds to cause repetitive ventricular response (RVR) when the heart was electrically stimulated via an electrode on the ventricle at the electrically vulnerable phase at the end of the T-wave. Klein et al. (M. Klein, N. S. Nejad, B. Lown, F. Hagemeijer and I. Blair, Circulation Research, 29, 635 (1971)) have shown that digitalis caused RVR at a dose which was about 70% of the dose giving spontaneous ventricular arrhythmias.
# (§3) The dog was anesthetized with Mebumal® 30 mg/kg bodyweight i.v. Artificial respiration was applied. The sinus-node was electrocoagulated and the heart frequency was kept constant at 180 beats/minute in each test by electrical pacing of the auricle. Mean arterial blood pressure was registered from the carotis artery. ECG was registered during the test. Further, the pressure in the left ventricle was registered via a catheter inserted through the apex and connected to a pressure transducer. The intraventricular pressure curve was derivated to obtain maximum dP/dt which is a measure of the contractile force of the heart.
# (§4) The test was started with a series of control registrations, whereupon the compounds were administered 3 times by infusion during five minutes and with an interval of 50 minutes between each infusion.
# (§5) In the experiment with compound I only, the compound was administered in two doses of 10 μg/kg bodyweight and then one dose of 20 μg/kg bodyweight. Ouabain was given in 3 consecutive doses of 20 μg/kg bodyweight. In the combination test ouabain was first given in a dose of 20 μg/kg bodyweight followed by two doses of compound I of 10 and 20 μg/kg bodyweight, respectively.
# [2] = biological target: T1, beta-receptors of the heart (Felis catus, UniProt Q9TST6); assay: Heart frequency increase before and after beta-blockade with Inderal; type: in vivo, cat; details: 0.01 mg/kg bodyweight i.v.
# T1 construct: Heart frequency was registered with a cardiotachometer triggered by the ECG; from tissue; host or cells: heart of the anaesthetized cat in vivo (reserpine-pretreated, vagotomized)
# Description: When the cats had been anaesthetized with Mebumal® 30 mg/kg bodyweight i.p., an artificial air respiration was started. The two vagus nerves were cut and the blood passing through a femoral artery was fed via a catheter and a pump back to the distal part of the vessel. Parallelly, a pressure transducer was connected by which the perfusion pressure was registered. At a perfusion with a constant flow, the perfusion pressure is directly proportional to the peripheral resistance of the vascular bed of the hind limb. Blood circulation in the foot was interrupted with a ligature. Heart frequency was registered with a cardiotachometer triggered by the ECG. The substances were administered intravenously in increasing doses and the dose-response curves of the heart frequency and the vasodilatation were constructed.
# heart [3] = assay: Ventricular arrhythmia in dogs after two-stage ligation of the left anterior coronary artery (third day post infarction); type: in vivo, dog
# Description: Harris, A. S. Delayed Development of Ventricular Ectopic Rhythms following Coronary Occlusion, Cir. l, p 1318, (1950) described a method of two-stage ligation of the left anterior coronary artery in the dog. This method produces a multifocal ventricular arrhythmia that generally remains persistent on the first post ligation day (day 1-24 hours post infarct). The arrhythmia slowly disappears, and by the third post-ligation day the animal has essentially a normal sinus rhythm.
# Maling, H. M. and Moran, N. C., Ventricular Arrhythmias Induced by Sympathominetic Amines in Unanesthetized Dogs Following Coronary Artery Occlussion, Cir.
# METHODS, MATERIALS AND EXPERIMENTAL DESIGN
# Seventeen adult female beagle dogs were used. Their ages ranged from one to three years. These animals were divided into two groups.
# The first group consisted of 12 dogs and served as a control group. All animals were subjected to a two-stage ligation of the left anterior coronary artery. On the first post operative day these twelve animals were given various experimental antiarrhythmic agents as part of a routine testing procedure. It should be noted that, due to the nature of these agents, there would be no test drug or only trace amounts of test drug in the blood on day 3, and these amounts would cause little or no change on the outcome of a third day test. It should also be noted that all twelve of these animals has at least 85% ventricular ectopic beats on the morning after surgery in order to be accepted for testing.
# On the third day post infarction the dogs were suspended in a standing position in a canvas sling. No anesthesia or sedation was used. ECGs were recorded as well as blood pressure. After a control period, an infusion of 20 μg/kg min. of 1-norepinephrine was begun using a Harvard infusion/withdrawal pump. This infusion lasted 120 minutes.
# These five animals were all subjected to a two stage ligation of the anterior descending coronary artery. On day 1 and day 2 each dog was suspended in a canvas sling in the standing position and ECG, blood pressure, and other physiologic measurements were taken. […]
# heart [4] = assay: Repetitive ventricular response (RVR) / spontaneous arrhythmia in the anesthetized dog; type: in vivo
# From the text: as §1, §2, §3, §4, §5
# [5] = 20 minutes after administration, ouabain versus compound I
# [6] = anesthetized dog, i.v. infusion
# T1 sequence (Q9TST6 whole entry): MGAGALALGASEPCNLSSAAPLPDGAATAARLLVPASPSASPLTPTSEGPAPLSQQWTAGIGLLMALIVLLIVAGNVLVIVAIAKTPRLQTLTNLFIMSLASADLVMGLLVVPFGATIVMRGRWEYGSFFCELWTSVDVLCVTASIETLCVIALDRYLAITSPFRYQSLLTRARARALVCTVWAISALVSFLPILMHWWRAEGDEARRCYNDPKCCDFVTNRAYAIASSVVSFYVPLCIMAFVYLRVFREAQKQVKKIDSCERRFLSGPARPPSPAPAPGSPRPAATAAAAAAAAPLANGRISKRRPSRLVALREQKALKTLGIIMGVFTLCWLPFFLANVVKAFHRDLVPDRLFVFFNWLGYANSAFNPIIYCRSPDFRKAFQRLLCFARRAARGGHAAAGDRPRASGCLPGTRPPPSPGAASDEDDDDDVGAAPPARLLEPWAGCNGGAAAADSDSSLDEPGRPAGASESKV
smiles,measurement,setting,value
"CC(C)NCC(O)COc1ccc(O)cc1 (stereo not drawn) [Compound I, 1-isopropylamino-3-(p-hydroxyphenoxy)-propanol-2]",auricle pressure (filling pressure),"cardiac beta-receptors; cat, i.v. infusion",decreased
same,affinity to cardiac beta-receptors giving inotropic versus chronotropic effects (in words),cardiac beta-receptors; in vivo,"higher affinity to cardiac beta-receptors, which give inotropic effects, than to beta-receptors in the sinus-node region, which give chronotropic effects"
same,increase of aortic blood pressure,heart [1]; 20 minutes after administration,no effect
same,doses giving approximately the same level of maximum dP/dt (lower pair),heart [1]; [5],about 10 μg/kg bodyweight
same,doses giving corresponding effect on maximum dP/dt (higher pair),heart [1]; [5],20 μg/kg bodyweight
same,effect on maximum dP/dt (in words),heart [1]; [6],increased the maximum dP/dt
same,onset of effect on maximum dP/dt,heart [1]; [6],immediate
same,reduction of effect on maximum dP/dt after 50 minutes,heart [1]; [6],almost completely reduced after 50 minutes
same,ventricular contractility compared with ouabain (in words),heart [1]; at same increase of maximum dP/dt,increased the ventricular contractility a little more than ouabain
same,"increase of heart frequency, given after Inderal",[2]; after 0.2 mg/kg i.v. Inderal,10 beats/minute
same,"increase of heart frequency, given before Inderal","[2]; before Inderal, average",60 beats/minute
same,ectopic activity in postdrug observation period,heart [3]; 60 minutes after compound I infusion,essentially no ectopic activity
same,arrhythmogenic effect (in words),"heart [3]; compound I 1.0 mg/kg/min i.v. for twenty minutes, day 3 post infarct",not arrhythmogenic; also recorded: the few ectopic beats seen during the predrug control were slightly suppressed; also recorded: lacks arrhythmogenic properties
same,RVR or spontaneous arrhythmia (in words),heart [4]; compound I 10 and 20 μg/kg bodyweight,did not in any case cause RVR or spontaneous arrhythmia
same,"arrhythmogenic effect in relation to inotropic effect, versus ouabain (in words)","heart [4]; dog, in vivo",evidently less arrhythmogenic effect than ouabain
